Values of other authors as cited in patent publication US20150173349A1, “Agroformulation comprising copolymer of an amide, polyalkylene glycol (meth)acrylate, and alkyl (meth)acrylate” (BASF SE, priority 2012, published 2015).
Values after ≈ are worked out from the molar mass of the structure shown.

Settings: 20° C.

SMILES: Cn1cc(C(=O)Nc2ccccc2-c2cc(F)c(F)c(F)c2)c(C(F)F)n1 [fluxapyroxad]
- solubility in water: 3.88 µg/mL (≈ 10.2 µM)
